Assay results: patent US20260085067A1, “CYCLIC SULFONAMIDE RIBONUCLEOTIDE REDUCTASE (RNR) INHIBITORS AND USES THEREOF” (Boundless Bio, Inc., priority 2022, published 2026)

How the values were obtained:
[1] = biological target: T1, RNR (RNR1:RNR2 1:1) (Homo sapiens, UniProt P23921); experiment: RNR enzyme activity, rapid-fire mass spectrometry (RF/MS) assay; format: biochemical; details: [RNR] 50 nM, 1:1 RNR1:RNR2; CDP 5 μM; ATP 1 mM; 37° C., 45 min; compounds screened up to 50 μM
T1 sequence (P23921 1-792): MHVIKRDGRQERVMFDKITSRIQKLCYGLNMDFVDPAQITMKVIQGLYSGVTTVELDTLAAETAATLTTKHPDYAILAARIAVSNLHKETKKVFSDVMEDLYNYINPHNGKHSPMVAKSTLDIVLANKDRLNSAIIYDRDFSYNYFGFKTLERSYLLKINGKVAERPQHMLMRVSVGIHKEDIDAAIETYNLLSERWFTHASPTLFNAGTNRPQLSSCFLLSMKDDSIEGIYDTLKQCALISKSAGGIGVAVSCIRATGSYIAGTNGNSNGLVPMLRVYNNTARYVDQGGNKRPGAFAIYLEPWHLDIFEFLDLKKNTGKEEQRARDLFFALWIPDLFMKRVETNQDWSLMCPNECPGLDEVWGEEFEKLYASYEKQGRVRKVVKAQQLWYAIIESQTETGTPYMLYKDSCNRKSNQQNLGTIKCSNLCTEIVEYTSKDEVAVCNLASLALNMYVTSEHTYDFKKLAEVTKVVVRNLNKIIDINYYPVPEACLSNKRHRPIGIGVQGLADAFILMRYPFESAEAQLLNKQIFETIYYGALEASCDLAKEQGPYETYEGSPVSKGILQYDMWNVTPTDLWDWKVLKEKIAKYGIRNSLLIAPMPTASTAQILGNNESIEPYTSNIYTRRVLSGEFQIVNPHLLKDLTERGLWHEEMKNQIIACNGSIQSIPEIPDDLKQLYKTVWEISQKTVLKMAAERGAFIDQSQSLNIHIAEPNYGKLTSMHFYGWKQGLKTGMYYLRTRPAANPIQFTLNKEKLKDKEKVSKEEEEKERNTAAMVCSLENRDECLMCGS
Procedure: A rapid-fire mass spectrometry (RF/MS) assay was used to assess RNR enzyme activity using a 384 well plate and a robotic platform.
The plate layout included two validated reference compounds (Triapine (3-AP) and Hydroxyurea (HU)): • A dose response in duplicate; top concentration: 5 μM (3-AP) and 250 μM (HU), semi-log dilutions. • Spike wells in triplicate randomly spotted at four concentrations: • 250 μM, 100 μM, 30 μM and 2 μM for HU • 5 μM, 2 μM, 0.6 μM and 0.04 μM for 3-AP
First, the multidrop pipes were saturated for 30 minutes with enzymatic solution. Then 30 μL of Stop solution was distributed in column 24. Next, 15 μL of enzyme was distributed in column 1 to 24. Next, a pre-incubation step of 15 minutes at room temperature occurred, followed by distribution of 15 μL of substrate solution (column 1 to 24). Next, the plate was incubated for 45 minutes at 37° C. 30 μL of Stop solution was then distributed to columns 1 to 23.
The final parameters for the enzyme reactions were: • Incubation: 37° C., 45 min • [CDP]: 5 μM; [ATP]: 1 mM; [NADPH]: No • [RNR]final: 50 nM with 1:1 (RNR1:RNR2) ratio • Final volume: 30 μL • Stop solution: 6% HCOOH in water

[2] = test system: pCHK1 (S345) in Colo320 DM cells; experiment: Alphalisa assay, detection of pCHK1 (S345) in Colo320 DM cells; format: cell-based, human; details: compound overnight (approximately 16 hours)
Procedure: Colo320 DM cells (ATCC #CCL-220, derived from human colorectal adenocarcinoma, Dukes' type C) were seeded on a […], cell culture treated assay plate at a density of 50,000 cells/well in 200 μL of RPMI-1640 media supplemented with 10% Fetal Bovine Serum and incubated at 37° C. overnight. The following day, test compound dilutions were added directly to the plated cells by a Tecan digital dispenser to a final DMSO concentration of <0.5%. and incubated at 37° C. overnight (approximately 16 hours). The following day all cell culture media was removed from the cells. 75 μL of 1×AlphaLisa lysis buffer was added to each well and plates were agitated on a shaker for 30 minutes at room temperature. The lysis of cells and detection of pCHK1 (S345) were performed with reagents contained within the AlphaLisa Sure Fire assay kit (Perkin Elmer #ALSU-PCHK1-A) according to the manufacturer's instructions. 10 μL of each lysate was then transferred to a white, 384-well assay plate (Perkin Elmer #6008280). 5 μL of Acceptor mix was then added to each well of lysate in the white, 384-well assay plate and incubated in the dark at room temperature for 60 minutes. 5 μL of Donor mix was then added to each well of the white, 384-well assay plate in subdued light and incubated at room temperature for 60 minutes. Plates were read on an Alpha Technology-compatible plate reader using standard AlphaLisa settings.

| IC50 [1] [µM] | IC50 ([2]; Homo sapiens, COLO 320DM) [µM] | IC50 [2] [µM] | Structure (SMILES) |
| --- | --- | --- | --- |
| < 0.02 | 1 to 5 |  | Cc1ccc(F)c([C@H](C)[C@H](c2n[nH]c(=O)o2)N2CN(CC(O)CO)c3cc(Cl)ccc3S2(=O)=O)c1C (mixture of isomers) [Example 85, 5-((1R,2S)-1-(6-chloro-4-(2,3-dihydroxypropyl)-1,1-dioxido-3,4-dihydro-2H-benzo[e][1,2,4]thiadiazin-2-yl)-2-(6-fluoro-2,3-dimethylphenyl)propyl)-1,3,4-oxadiazol-2 (3H)-one] |
| 1 to 10 | > 50 |  | Cc1ccc(F)c([C@@H](C)[C@@H](c2n[nH]c(=O)o2)N2CCOc3c(ccc(Cl)c3C(C)O)S2(=O)=O)c1C (single isomer, unassigned) [Example 28] |
| 10 to 100 |  | > 50 | Cc1ccc(F)c([C@@H](C)[C@@H](c2n[nH]c(=O)o2)N2CCOc3c(ccc(Cl)c3C(C)O)S2(=O)=O)c1C (single isomer, unassigned) [Example 29] |
|  | 10 to 50 |  | Cc1ccc(F)c([C@@H](C)[C@@H](c2n[nH]c(=O)o2)N2C(C)N(C)c3cc(Cl)ccc3S2(=O)=O)c1C (stereo partly drawn) [Example 11, 5-((1S,2R)-1-(6-chloro-3,4-dimethyl-1,1-dioxido-3,4-dihydro-2H-benzo[e][1,2,4]thiadiazin-2-yl)-2-(6-fluoro-2,3-dimethylphenyl)propyl)-1,3,4-oxadiazol-2 (3H)-one] |
|  | ≤ 1 |  | Cc1ccc(F)c([C@@H](C)[C@@H](c2n[nH]c(=O)o2)N2CN(CC(C)(C)O)c3cc(Cl)ccc3S2(=O)=O)c1C [Example 91, 5-((1S,2R)-1-(6-chloro-4-(2-hydroxy-2-methylpropyl)-1,1-dioxido-3,4-dihydro-2H-benzo[e][1,2,4]thiadiazin-2-yl)-2-(6-fluoro-2,3-dimethylphenyl)propyl)-1,3,4-oxadiazol-2 (3H)-one] |
|  | 1 to 5 |  | CC(=O)c1cc(Cl)cc2c1S(=O)(=O)N([C@H](c1n[nH]c(=O)o1)[C@@H](C)c1c(F)ccc(C)c1C)CN2C1CC1 [Example 94, 5-((1S,2S)-1-(8-acetyl-6-chloro-4-cyclopropyl-1,1-dioxido-3,4-dihydro-2H-benzo[e][1,2,4]thiadiazin-2-yl)-2-(6-fluoro-2,3-dimethylphenyl)propyl)-1,3,4-oxadiazol-2 (3H)-one] |
|  | ≤ 1 |  | Cc1ccc(F)c([C@@H](C)[C@@H](c2n[nH]c(=O)o2)N2CN(C3CN(CC(F)F)C3)c3cc(Cl)ccc3S2(=O)=O)c1C [Example 107, 5-((1S,2R)-1-(6-chloro-4-(1-(2,2-difluoroethyl)azetidin-3-yl)-1,1-dioxido-3,4-dihydro-2H-benzo[e][1,2,4]thiadiazin-2-yl)-2-(6-fluoro-2,3-dimethylphenyl)propyl)-1,3,4-oxadiazol-2 (3H)-one] |
|  | ≤ 1 |  | Cc1ccc(F)c([C@@H](C)[C@@H](c2n[nH]c(=O)o2)N2CN(CCF)c3cc(Cl)ccc3S2(=O)=O)c1C [Example 108, 5-((1S,2R)-1-(6-chloro-4-(2-fluoroethyl)-1,1-dioxido-3,4-dihydro-2H-benzo[e][1,2,4]thiadiazin-2-yl)-2-(6-fluoro-2,3-dimethylphenyl)propyl)-1,3,4-oxadiazol-2 (3H)-one] |
|  | ≤ 1 |  | CC(=O)c1cc(Cl)cc2c1S(=O)(=O)N([C@H](c1n[nH]c(=O)o1)[C@H](C)c1c(F)ccc(C)c1C)CN2 [Example 109, 5-((1S,2R)-1-(8-acetyl-6-chloro-1,1-dioxido-3,4-dihydro-2H-benzo[e][1,2,4]thiadiazin-2-yl)-2-(6-fluoro-2,3-dimethylphenyl)propyl)-1,3,4-oxadiazol-2 (3H)-one] |
|  | ≤ 1 |  | CC(=O)c1cc(Cl)cc2c1S(=O)(=O)N([C@H](c1n[nH]c(=O)o1)[C@H](C)c1c(F)ccc(C)c1C)CN2CCO [Example 110, 5-((1S,2R)-1-(8-acetyl-6-chloro-4-(2-hydroxyethyl)-1,1-dioxido-3,4-dihydro-2H-benzo[e][1,2,4]thiadiazin-2-yl)-2-(6-fluoro-2,3-dimethylphenyl)propyl)-1,3,4-oxadiazol-2 (3H)-one] |
|  | ≤ 1 |  | Cc1ccc(F)c([C@@H](C)[C@@H](c2n[nH]c(=O)o2)N2CN([C@H]3C[C@@H](N(C)C)C3)c3cc(Cl)ccc3S2(=O)=O)c1C [Example 111, 5-((1S,2R)-1-(6-chloro-4-((1s,3R)-3-(dimethylamino)cyclobutyl)-1,1-dioxido-3,4-dihydro-2H-benzo[e][1,2,4]thiadiazin-2-yl)-2-(6-fluoro-2,3-dimethylphenyl)propyl)-1,3,4-oxadiazol-2 (3H)-one] |
|  | ≤ 1 |  | Cc1ccc(F)c([C@@H](C)[C@@H](c2n[nH]c(=O)o2)N2CN([C@H]3C[C@@H](O)C3)c3cc(Cl)ccc3S2(=O)=O)c1C [Example 112, 5-((1S,2R)-1-(6-chloro-4-((1s,3R)-3-hydroxycyclobutyl)-1,1-dioxido-3,4-dihydro-2H-benzo[e][1,2,4]thiadiazin-2-yl)-2-(6-fluoro-2,3-dimethylphenyl)propyl)-1,3,4-oxadiazol-2 (3H)-one] |
|  | 5 to 10 |  | Cc1ccc(F)c([C@@H](C)[C@@H](c2n[nH]c(=O)o2)N2CN(CCN)c3cc(Cl)ccc3S2(=O)=O)c1C [Example 113, 5-((1S,2R)-1-(4-(2-aminoethyl)-6-chloro-1,1-dioxido-3,4-dihydro-2H-benzo[e][1,2,4]thiadiazin-2-yl)-2-(6-fluoro-2,3-dimethylphenyl)propyl)-1,3,4-oxadiazol-2 (3H)-one] |
|  | 5 to 10 |  | Cc1ccc(F)c([C@@H](C)[C@@H](c2n[nH]c(=O)o2)N2CN(OCc3ccccc3)c3cc(Cl)ccc3S2(=O)=O)c1C [Example 114, 5-((1S,2R)-1-(4-(benzyloxy)-6-chloro-1,1-dioxido-3,4-dihydro-2H-benzo[e][1,2,4]thiadiazin-2-yl)-2-(6-fluoro-2,3-dimethylphenyl)propyl)-1,3,4-oxadiazol-2 (3H)-one] |
|  | 5 to 10 |  | CNCCN1CN([C@H](c2n[nH]c(=O)o2)[C@H](C)c2c(F)ccc(C)c2C)S(=O)(=O)c2ccc(Cl)cc21 [Example 115, 5-((1S,2R)-1-(6-chloro-4-(2-(methylamino)ethyl)-1,1-dioxido-3,4-dihydro-2H-benzo[e][1,2,4]thiadiazin-2-yl)-2-(6-fluoro-2,3-dimethylphenyl)propyl)-1,3,4-oxadiazol-2 (3H)-one] |
|  | 5 to 10 |  | CC(=O)c1cc(Cl)cc2c1S(=O)(=O)N([C@H](c1n[nH]c(=O)o1)[C@H](C)c1c(F)ccc(C)c1C)CC(=O)N2 [Example 119, 5-((1S,2R)-1-(9-acetyl-7-chloro-1,1-dioxido-4-oxo-4,5-dihydrobenzo[f][1,2,5]thiadiazepin-2 (3H)-yl)-2-(6-fluoro-2,3-dimethylphenyl)propyl)-1,3,4-oxadiazol-2 (3H)-one] |

| Structure (SMILES) | IC50 [1] [µM] | IC50 ([2]; Homo sapiens, COLO 320DM) [µM] | IC50 [2] [µM] |
| --- | --- | --- | --- |
| Cc1ccc(F)c([C@@H](C)[C@@H](c2n[nH]c(=O)o2)N2COc3c(ccc(Cl)c3C)S2(=O)=O)c1C [Example 31, 5-((1S,2R)-1-(6-chloro-5-methyl-1,1-dioxidobenzo[e][1,4,3]oxathiazin-2 (3H)-yl)-2-(6-fluoro-2,3-dimethylphenyl)propyl)-1,3,4-oxadiazol-2 (3H)-one] |  | 1 to 5 |  |
